The results in this text go back to patent publication US20170100396A1 (priority 2015, published 2017).

The test system of data set [1] is influenza A virus (IAV) A/Aichi/2/68 (H3N2). Put plainly: microbe, parasite or virus in culture. The class given is cell-based, influenza A virus in MDCK cells. Conditions: Influenza A virus.
Data set [2] can be described thus: in vitro. The conditions noted are these: dog.
The target in data set [3] is PB2 cap binding domain (PB2-CBD) (residues 318-483) (Influenza A virus (A/duck/Shantou/4610/2003(H5N1)), UniProt Q2LG68). Also noted: species or system avian influenza strain A/duck/Shantou/4610/2003(H5N1).
[4] abbreviates: H3N2, MDCK, 48 h, read-out: CPE IC50.
Setting [5] is: H3N2, read-out: % CPE reduction.

Like-named read-outs stand apart in the source and are kept apart here.

As usually defined, the IC50 is the midpoint of a concentration-inhibition curve.

With `COC(=O)c1cccc(CNC(=O)[C@H](NC(=O)c2c[nH]c3ncc(C4CC4)nc23)C2CC2)c1`, the IC50 in data set [1] (setting [4]) came to 4.8 µM. Moreover, the CC50 in data set [2] was 63.9 µM. As for `CS(=O)(=O)c1cccc(CNC(=O)c2c[nH]c3ncc(-c4ccccc4Cl)nc23)c1`, the “Fp (result in words)” value in data set [3] is “No displacement”. In addition, the IC50 in data set [1] (H3N2, read-out: CPE IC50) came to 22.5 µM. On to `O=C(NCC1CC1)c1c[nH]c2ncc(-c3ccccc3Cl)nc12`, for which the “Fp (result in words)” value in data set [3] is reported as “No displacement”. As for `CC(C)c1cnc2[nH]cc(C(=O)NCC(C)(C)C)c2n1`, the “Fp (result in words)” value in data set [3] was “No displacement”. The half-inhibitory concentration (IC50) in data set [1] (setting [4]) turned out to be 52.2 µM. Take `N#Cc1cccc(CNC(=O)[C@H](NC(=O)c2c[nH]c3ncc(C4CC4)nc23)C2CC2)c1`: the IC50 in data set [1] (setting [4]) is 12.4 µM. For the same compound, in data set [2], the CC50 is > 50 µM.

On to `O=C(NCCc1ccccc1)c1c[nH]c2ncc(C3CC3)nc12`, for which, in data set [1] (setting [4]), the IC50 is 66.9 µM. Moreover, the CC50 in data set [2] is > 100 µM. On the same counts, the results for `O=C(N[C@@H](C(=O)NCc1ccc(Cl)cc1Cl)C1CC1)c1c[nH]c2ncc(C3CC3)nc12` are 11.2 µM and > 12.5 µM. On to `CC(C)c1cnc2[nH]cc(C(=O)NC3(C#N)CC3)c2n1`, for which, in data set [1] (setting [4]), the IC50 is 34.7 µM. Same read-out and setting: with `O=C(N[C@@H](C(=O)N1CC2(CCC2)C1)C1CC1)c1c[nH]c2ncc(C3CC3)nc12` the figure was > 100 µM; with `COC(=O)C1CC2(CC(NC(=O)[C@@H](CC(C)C)NC(=O)c3c[nH]c4ncc(C5CC5)nc34)C2)C1` (some centres unmarked), > 100 µM. In the case of `O=C(N[C@H](C(=O)N1CCCC1)C1CC1)c1c[nH]c2ncc(C3CC3)nc12`, the 50% inhibitory concentration (IC50) in data set [1] (setting [4]) was > 25 µM. In the case of `CC(C)C(NC(=O)c1c[nH]c2ncc(C3CC3)nc12)C(N)=O` (centres unmarked), the inhibition at 5 µM in data set [1] (setting [5]) is -10.7%. In the case of `CC(C)NC(=O)c1c[nH]c2ncc(-c3ccccc3C(F)(F)F)nc12`, in data set [1] (setting [4]), the concentration for half-maximal inhibition (IC50) was > 100 µM. As for `O=C(N[C@@H](C(=O)NCc1cccc(Cl)c1)C1CC1)c1c[nH]c2ncc(C3CC3)nc12`, the IC50 in data set [1] (setting [4]) was found to be 7.3 µM. The same measure, in the same setting: then `O=C(N[C@@H](C(=O)NCCC(=O)N1CCCCC1)C1CC1)c1c[nH]c2ncc(C3CC3)nc12`, with > 100 µM. Regarding `CC(C)NC(=O)c1c[nH]c2ncc(-c3ccc(C4(C(=O)O)CC4)cc3)nc12`, in data set [1] (setting [5]), the inhibition at 25 µM is -8.7%. `CC(C)C[C@@H](NC(=O)c1c[nH]c2ncc(C3CC3)nc12)C(=O)NCC(=O)NCc1ccccn1`: the IC50 in data set [1] (setting [4]) was > 100 µM. On to `CN1CCN(C(=O)CCNC(=O)[C@H](NC(=O)c2c[nH]c3ncc(C4CC4)nc23)C2CC2)CC1`, for which, in data set [1] (setting [4]), the IC50 is > 100 µM. On the same count and under the same terms, with `O=C(N[C@@H](C(=O)NCc1ccc(Cl)cc1)C1CC1)c1c[nH]c2ncc(C3CC3)nc12` the figure was 2.99 µM; with `O=C(N[C@@H](C(=O)NCc1ccccc1Cl)C1CC1)c1c[nH]c2ncc(C3CC3)nc12`, 8.8 µM. Turning to `O=C(N[C@@H](C(=O)N1CCC(CO)C1)C1CCCCC1)c1c[nH]c2ncc(C3CC3)nc12` (some centres unmarked), the inhibition at 50 µM in data set [1] (setting [5]) is -10.1%. For `CC(C)c1cnc2[nH]cc(C(=O)N3CCC(F)(F)CC3)c2n1`, the half-maximal inhibitory concentration (IC50) in data set [1] (setting [4]) was > 100 µM. For the compound `CC(C)C[C@@H](NC(=O)c1c[nH]c2ncc(C3CC3)nc12)C(=O)NCC(=O)NC1CCCC1`, the half-inhibitory concentration (IC50) in data set [1] (setting [4]) is > 100 µM.
